PMC8688152, “Distinct classes of potassium channels fused to GPCRs as electrical signaling biosensors” (Cell Reports Methods, 2021)

Key:
M2_Kcv-09-03 = target: T1, M2_Kcv-09-03 (UniProt P08172+Q84568); assay: TEVC recording of M2_Kcv-09-03 ICCR expressed in Xenopus oocytes; assay type: cell-based, human (M2), Paramecium bursaria chlorella virus 1 (Kcv)
T1 construct: expressed in transfected cells; host or cells: Xenopus oocytes (mRNA injection)
T1 sequence (P08172+Q84568 with tags, fused parts or gaps): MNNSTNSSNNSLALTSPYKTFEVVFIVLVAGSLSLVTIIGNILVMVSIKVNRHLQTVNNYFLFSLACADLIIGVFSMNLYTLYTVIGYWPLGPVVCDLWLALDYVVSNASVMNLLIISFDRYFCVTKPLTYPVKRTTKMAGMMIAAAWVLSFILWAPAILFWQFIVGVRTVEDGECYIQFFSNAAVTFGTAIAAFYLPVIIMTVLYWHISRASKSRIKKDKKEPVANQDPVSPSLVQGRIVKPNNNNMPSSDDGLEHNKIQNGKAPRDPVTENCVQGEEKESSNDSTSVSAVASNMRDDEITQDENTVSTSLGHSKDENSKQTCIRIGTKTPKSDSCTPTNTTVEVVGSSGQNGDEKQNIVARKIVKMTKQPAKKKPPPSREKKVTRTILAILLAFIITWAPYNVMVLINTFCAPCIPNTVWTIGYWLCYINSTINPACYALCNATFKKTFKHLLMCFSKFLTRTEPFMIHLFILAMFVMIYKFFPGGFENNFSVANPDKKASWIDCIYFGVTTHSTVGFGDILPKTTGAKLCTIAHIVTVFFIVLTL
Procedure: (§1) Microelectrodes were filled with […]. […] The membrane voltage was clamped to −50 mV.

M2_T-00-43 [1] = target: T2, M2_T-00-43 (UniProt P08172+P97438); assay: TEVC recording of M2_T-00-43 ICCR in Xenopus oocytes; assay type: cell-based, human (M2), mouse (TREK-1); design: full-length (−00) or M2 deleted of its last nine residues (−09) in the indicated ICCRs; expressed in transfected cells; host or cells: Xenopus oocytes (mRNA injection)
T2 sequence (P08172+P97438 with tags, fused parts or gaps): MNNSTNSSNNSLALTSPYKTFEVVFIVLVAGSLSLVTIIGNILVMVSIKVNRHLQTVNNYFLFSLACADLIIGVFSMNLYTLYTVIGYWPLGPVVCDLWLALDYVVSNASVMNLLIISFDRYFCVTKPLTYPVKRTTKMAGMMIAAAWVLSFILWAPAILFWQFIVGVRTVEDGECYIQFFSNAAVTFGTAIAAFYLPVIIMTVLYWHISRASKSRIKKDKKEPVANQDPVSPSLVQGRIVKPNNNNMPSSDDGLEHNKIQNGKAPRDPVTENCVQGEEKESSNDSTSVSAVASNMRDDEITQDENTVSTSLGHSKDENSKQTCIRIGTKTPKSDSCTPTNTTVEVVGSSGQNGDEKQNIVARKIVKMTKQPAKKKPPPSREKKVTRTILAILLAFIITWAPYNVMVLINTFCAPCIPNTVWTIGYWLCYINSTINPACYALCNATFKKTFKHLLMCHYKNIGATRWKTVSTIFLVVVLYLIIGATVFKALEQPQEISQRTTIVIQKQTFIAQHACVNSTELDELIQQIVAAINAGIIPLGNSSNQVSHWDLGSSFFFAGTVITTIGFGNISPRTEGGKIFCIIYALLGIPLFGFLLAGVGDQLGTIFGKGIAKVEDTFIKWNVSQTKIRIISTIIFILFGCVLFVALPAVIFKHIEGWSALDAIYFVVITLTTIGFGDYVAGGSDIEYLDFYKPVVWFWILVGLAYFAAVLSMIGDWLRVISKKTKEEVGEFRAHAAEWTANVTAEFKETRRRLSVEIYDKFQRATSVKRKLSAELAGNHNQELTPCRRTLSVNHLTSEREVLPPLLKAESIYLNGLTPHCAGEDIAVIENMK
Procedure: (§2) Xenopus oocytes were prepared as previously reported ([Moreau et al., 2008]). Briefly, after surgical retrieval, the oocytes were defolliculated by type 1A collagenase. Each oocyte was injected with 50 nl of RNAse-free water containing the desired mRNAs. The mRNA quantities used per oocyte were: ICCR with Kcv, 2.7 ng (M2_Kcv and D2_Kcv) and 2.9 ng (OXTR_Kcv); ICCR with mTREK-1, 4.2 ng; ICCR with Kir6.2, 4.3 ng; M2, 2.3 ng; D2, 2.2 ng; Kir3.4T, 2.2 ng; Kcv 0.46 ng and mTREK-1, 2.1 ng. Microinjected oocytes were incubated 2 to 3 days at 19°C in modified-Barth's solution (in mM: 1 KCl, 0.82 MgSO4, 88 NaCl, 2.4 NaHCO3, 0.41 CaCl2, 16 HEPES, pH 7.4) supplemented with 100 U.ml^−1 of penicillin and streptomycin and 0.1 mg.mL^−1 of gentamycin. Animal handling and experiments fully conformed to European regulations and were approved by the French Ministry of Higher Education and Research (APAFIS#4420-2016030813053199 v4 to CM). Authorization of the animal facility has been delivered by the Prefect of Isere (Authorization #D 38 185 10 001).
(§3) Two-electrode voltage-clamp (TEVC) recordings were performed automatically with HiClamp robots (MultiChannel Systems). These TEVC robots rapidly change the applied solutions by transferring the oocytes in different wells of a 96-well plate. […] Microelectrodes were filled with […]. During recordings, oocytes were incubated in low potassium concentration buffer (ND96, in mM: 96 NaCl, 2 KCl, 1.8 CaCl2, 1 MgCl2, 5 HEPES, pH 7.4 supplemented with 0.3 niflumic acid), and in high potassium buffer (in mM: 91 KCl, 1.8 CaCl2, 1 MgCl2, 5 HEPES, 0.3 niflumic acid, pH 7.4). The membrane voltage was clamped to −50 mV. Ligands and BaCl2 were diluted in the high potassium buffer. […] Ligand effects were measured in high potassium concentration buffer with the membrane potential clamped to −50 mV and at 19°C.
(§4) Change of potassium current induced by ligand was calculated either with the barium-sensitive currents as a 0-reference for Kcv-based ICCRs or with the currents in ND96 for mTREK-1 ICCRs. Softwares created by Michel Vivaudou ([Vivaudou, 2019]) were used to extract the raw data.

M2_Kir6.2-09-25 = test system: M2_Kir6.2-09-25; design: method as in Moreau et al., 2017; settings: Kir6.2 ICCRs; ref Moreau et al., 2017; read-out: IC50 observed with Kir6.2 ICCRs; cited from earlier work
M2_T-00-43 [2] = target: T2, M2_T-00-43; assay: Whole-cell patch-clamp on HEK293 cells expressing M2_T-00-43; assay type: cell-based, human (M2), mouse (TREK-1); design: expressed in transfected cells; host or cells: HEK293 (pIRES2-eGFP vector)
Procedure: HEK293 cells were grown in 75-mm tissue-culture dishes (Falcon, Franklin Lakes, NJ) in Dulbecco’s modified Eagle’s medium (Gibco, Life Technologies, Saint Aubin, France) supplemented with 10% fetal calf serum (Hyclone, Thermo Fisher Scientific GMBH, Ulm, Germany) and 1% penicillin/streptomycin (Gibco, Life Technologies, Saint Aubin, France) in a humidified incubator at 37 °C (5% CO2). For electrophysiology of ICCRs, […] of plasmid was transfected using Jet-PEI (PolyPlus Transfection, Illkirch FRANCE) according to the manufacturer’s instructions. Cells were plated onto 35-mm dishes 24 h before transfection, and experiments were performed over the following 1–2 days.
Pipettes were pulled from hematocrit-capillaries (Hirschmann Laborgeraete, Germany) using a vertical puller (PC-10, Narishige International, London, United Kingdom), and had resistances of 3–6 MΩ when filled with internal solution and measured in standard bath solution. Whole cell membrane currents were measured and filtered at 3 kHz by a MultiClamp 700A patch clamp amplifier (Molecular Devices), and digitized at 10 kHz using a 12-bit analog-to-digital converter Digidata-1322A (Axon Instrument, Sunnyvale, CA, United States). Recordings were done using Clampex 9 software (Axon Instrument). […]

D2_T+09M2-43 = D2_T+09M2-43 (UniProt P14416+P97438); settings: TEVC
Sequence of D2_T+09M2-43 (P14416+P97438 fused): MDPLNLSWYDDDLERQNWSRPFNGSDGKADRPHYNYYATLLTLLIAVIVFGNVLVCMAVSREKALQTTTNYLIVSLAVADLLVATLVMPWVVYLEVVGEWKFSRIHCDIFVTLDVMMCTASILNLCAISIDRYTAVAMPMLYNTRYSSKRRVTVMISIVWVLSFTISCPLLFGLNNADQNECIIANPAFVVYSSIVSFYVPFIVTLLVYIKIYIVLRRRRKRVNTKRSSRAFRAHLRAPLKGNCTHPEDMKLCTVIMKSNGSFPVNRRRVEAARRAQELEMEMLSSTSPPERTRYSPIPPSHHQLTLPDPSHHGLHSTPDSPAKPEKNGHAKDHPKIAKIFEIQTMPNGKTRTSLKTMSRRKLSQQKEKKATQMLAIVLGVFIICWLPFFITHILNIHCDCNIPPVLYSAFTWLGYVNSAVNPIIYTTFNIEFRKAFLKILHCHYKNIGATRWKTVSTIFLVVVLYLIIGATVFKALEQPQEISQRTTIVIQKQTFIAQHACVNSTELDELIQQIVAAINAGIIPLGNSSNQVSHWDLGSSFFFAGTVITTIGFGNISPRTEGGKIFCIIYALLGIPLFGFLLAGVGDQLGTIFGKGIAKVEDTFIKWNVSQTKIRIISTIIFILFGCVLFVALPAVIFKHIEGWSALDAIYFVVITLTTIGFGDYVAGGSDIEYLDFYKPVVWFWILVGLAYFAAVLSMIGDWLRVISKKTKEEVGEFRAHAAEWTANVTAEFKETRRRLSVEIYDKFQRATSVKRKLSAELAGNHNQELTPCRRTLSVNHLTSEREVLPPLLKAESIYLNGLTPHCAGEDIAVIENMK
Procedure: as §2, §3, §4

D2_T-00-43 = D2_T-00-43 (UniProt P14416+P97438); settings: weak inhibition, mean ± SEM
Sequence of D2_T-00-43 (P14416+P97438 fused): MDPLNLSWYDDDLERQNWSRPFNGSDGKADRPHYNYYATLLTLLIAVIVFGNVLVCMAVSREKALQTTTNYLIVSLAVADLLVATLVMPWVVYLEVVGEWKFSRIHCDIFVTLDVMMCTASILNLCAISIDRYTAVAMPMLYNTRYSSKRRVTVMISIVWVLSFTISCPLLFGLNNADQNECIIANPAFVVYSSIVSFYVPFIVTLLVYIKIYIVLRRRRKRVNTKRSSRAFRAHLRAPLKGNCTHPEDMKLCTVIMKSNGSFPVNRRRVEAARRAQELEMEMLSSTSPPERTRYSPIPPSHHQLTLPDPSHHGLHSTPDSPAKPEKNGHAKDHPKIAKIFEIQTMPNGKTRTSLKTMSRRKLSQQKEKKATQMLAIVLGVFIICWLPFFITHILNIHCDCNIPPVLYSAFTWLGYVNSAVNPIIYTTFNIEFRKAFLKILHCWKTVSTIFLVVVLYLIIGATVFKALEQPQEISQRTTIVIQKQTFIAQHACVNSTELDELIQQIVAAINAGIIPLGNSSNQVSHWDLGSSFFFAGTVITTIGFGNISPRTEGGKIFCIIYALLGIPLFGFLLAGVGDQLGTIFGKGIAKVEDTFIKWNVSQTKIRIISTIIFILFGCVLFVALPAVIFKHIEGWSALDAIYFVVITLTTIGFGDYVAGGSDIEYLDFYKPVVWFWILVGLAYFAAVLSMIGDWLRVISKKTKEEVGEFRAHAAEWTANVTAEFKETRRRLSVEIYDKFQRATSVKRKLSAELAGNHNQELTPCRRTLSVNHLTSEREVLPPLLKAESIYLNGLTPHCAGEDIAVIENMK
Procedure: as §2, §3, §4

[3] = test system: Kir3.4T co-expressed with D2_Kcv-00-03; settings: TEVC, Xenopus oocytes
Procedure: as §2, §3, §4

[4] = target: unfused D2L and mTREK-1 (D2+mTREK-1) (Homo sapiens, UniProt P14416); settings: control with co-expression of the unfused proteins, mean ± SEM
Sequence of unfused D2L and mTREK-1 (D2+mTREK-1) (P14416 whole entry, the tested form may be a part): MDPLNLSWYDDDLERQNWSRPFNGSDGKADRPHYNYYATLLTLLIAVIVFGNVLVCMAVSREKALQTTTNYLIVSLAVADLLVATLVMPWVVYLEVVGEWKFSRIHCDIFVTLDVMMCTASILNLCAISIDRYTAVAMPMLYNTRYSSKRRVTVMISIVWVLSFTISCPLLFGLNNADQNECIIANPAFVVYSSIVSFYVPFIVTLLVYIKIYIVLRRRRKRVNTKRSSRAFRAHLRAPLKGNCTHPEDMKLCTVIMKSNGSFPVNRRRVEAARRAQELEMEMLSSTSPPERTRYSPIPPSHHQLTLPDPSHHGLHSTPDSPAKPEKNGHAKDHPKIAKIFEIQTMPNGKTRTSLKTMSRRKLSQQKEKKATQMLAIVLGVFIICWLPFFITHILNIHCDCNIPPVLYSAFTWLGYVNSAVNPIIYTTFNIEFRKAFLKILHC
Procedure: as §2, §3, §4

D2_K+09M2-25 = settings: read-out: EC50 on the equivalent Kir6.2 ICCR (D2_K+09M2-25); ref Moreau et al., 2008; cited from earlier work
mTREK-1 −43 = target: T3, mTREK-1 −43 (Mus musculus, UniProt P97438); assay: TEVC control: unfused N-terminally truncated mTREK-1 −43; assay type: cell-based; settings: 10 μM BL1249, TEVC
T3 construct: expressed in transfected cells; host or cells: Xenopus oocytes (mRNA injection); gene synthesized by GeneCust
Procedure: as §1

OXTR[T4L]_Kcv-42-03 = assay: TEVC recording of OXTR[T4L]_Kcv-42-03 in Xenopus oocytes; assay type: cell-based, human (OXTR), Paramecium bursaria chlorella virus 1 (Kcv)
Procedure: as §2, with “Authorization of the animal facility has been delivered by the Prefect of Isere (Authorization #D 38 185 10 001).” left out
Two-electrode voltage-clamp (TEVC) recordings were performed automatically with HiClamp robots (MultiChannel Systems). […] Ligand effects were measured in high potassium concentration buffer with the membrane potential clamped to −50 mV and at 19°C.
Change of potassium current induced by ligand was calculated either with the barium-sensitive currents as a 0-reference for Kcv-based ICCRs or with the currents in ND96 for mTREK-1 ICCRs. […]

[5] = concentration-effect curve, TEVC

CN1[C@@H]2CC[C@H]1C[C@@H](OC(=O)C(CO)c1ccccc1)C2 (stereo partly drawn) [atropine]
effect of atropine co-application on the ACh response of M2_Kcv-09-03 (M2_Kcv-09-03; 1 μM atropine co-applied with ACh 5 μM): almost entirely abolished the ACh response | effect of atropine co-application on ACh-induced activation of M2_T-00-43 (M2_T-00-43 [1]): inhibited ACh-induced activation

C[N+](C)(C)CCOC(N)=O [CCh, carbachol]
Hill coefficient (nH) on M2_Kcv-09-03 (M2_Kcv-09-03; [5]): 0.98 | IC50 (M2_Kir6.2-09-25): 1200 nM | Hill coefficient (nH) on M2_T-00-43 (M2_T-00-43 [1]; [5]): 0.97

spadin
inhibition of BL1249 activation of M2_T-00-43 (M2_T-00-43 [2]; 1 μM spadin with 10 μM BL1249, mean ± SEM): 56.8% ± 9.1%

NCCc1ccc(O)c(O)c1 [dopamine]
activation: % of current change induced by 5 μM dopamine on D2_T+09M2-43 (D2_T+09M2-43; 5 μM, Xenopus oocytes, mean ± SEM): 12.1% ± 1.7% | Hill coefficient (nH) on D2_T+09M2-43 (D2_T+09M2-43; concentration-effect curve): 0.76 | % of current change induced by 5 μM dopamine on D2_T-00-43 (D2_T-00-43): −4.1% ± 0.6% | G protein activation (Kir3.4T) by D2_Kcv-00-03 upon dopamine application [3]: triggers the activation of the endogenous Gi/o proteins | % of current change induced by 5 μM dopamine on unfused D2 + mTREK-1 [4]: −2.2% ± 1.3% | EC50 (D2_K+09M2-25): 400 nM

c1ccc(-c2nn[nH]n2)c(Nc2cccc3c2CCCC3)c1 [BL1249]
activation of unfused truncated mTREK-1 −43 by BL1249, compared with WT channel (mTREK-1 −43): lower activation | activation of M2_T-00-43: increase of the current (M2_T-00-43 [2]; 10 μM BL1249, mean ± SEM): 880% ± 190%

oxytocin
response of OXTR[T4L]_Kcv-42-03 to oxytocin (OXTR[T4L]_Kcv-42-03): did not induce any response
